The nature of test [1]: Inhibition of Magnaporthe grisea Guy 11 ICL. More on the design: species or system Pyricularia grisea.
A further test deals with Staphylococcus aureus. In words: Antibacterial activity against Staphylococcus aureus ATCC 6538p after 24 hrs by serial two fold dilution method. The class given is functional.
The subject of another test is Proteus hauseri. In words: Antibacterial activity against Proteus hauseri NBRC 3851 after 24 hrs by serial two fold dilution method. The note with it: NBRC 3851, 24 h. Type of test: functional.
Another test has as its system Kocuria rhizophila. Kind of test: Antibacterial activity against Kocuria rhizophila NBRC 12708 after 24 hrs by serial two fold dilution method. Type of test: functional. The following applies: NBRC 12708, 24 h.
The target of a further test is T1, Sortase A (Staphylococcus aureus, UniProt Q9S446).
T1 sequence (Q9S446 whole entry): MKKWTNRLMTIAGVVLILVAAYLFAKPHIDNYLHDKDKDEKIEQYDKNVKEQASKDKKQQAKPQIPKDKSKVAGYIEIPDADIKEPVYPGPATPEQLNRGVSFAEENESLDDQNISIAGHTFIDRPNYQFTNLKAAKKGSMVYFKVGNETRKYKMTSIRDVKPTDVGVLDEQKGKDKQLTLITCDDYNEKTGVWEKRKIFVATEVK
In words: Inhibition of Staphylococcus aureus ATCC 6538p SortA expressed in Escherichia coli using Dabcyl-QALPETGEE-Edans as substrate after 1 hr by fluorescence spectrophotometric method.

The target in test [2] is Sodium/potassium-transporting ATPase. Kind of test: Inhibition of KCl-stimulated Na+/K+-ATPase in human placental membrane vesicles measured for 60 secs by 3-O-methylfluorescein phosphate dye based fluorometric method. The class given is cell membranes, Placenta.
Another test deals with A549. Kind of test: Cytotoxicity against human A549 cells by MTT assay. The class given is functional. The following applies: read-out: LC50 (the source's name). For orientation: Tetrazolium assays rely on reduction of a dye to a coloured formazan, in cell work by metabolically active cells.
In a further test the test system is Escherichia coli. In words: Antibacterial activity against Escherichia coli ATCC 35270 after 24 hrs by serial two fold dilution method. The class given is functional. The following applies: ATCC 35270, 24 h.
In a further test the test system is K562. In words: Cytotoxicity against human K562 cells by MTT assay. The class given is functional. The following applies: read-out: LC50 (the source's name).
The next test relates to Bacillus spizizenii. In words: Antibacterial activity against Bacillus subtilis ATCC 6633 after 24 hrs by serial two fold dilution method. The class given is functional. The following applies: ATCC 6633, 24 h.
The test system of another test is Salmonella typhimurium. In words: Antibacterial activity against Salmonella enterica ATCC 14028 after 24 hrs by serial two fold dilution method. The following applies: ATCC 14028, 24 h. The class given is functional, Salmonella enterica subsp. enterica serovar Typhimurium.

Converted amounts (≈) assume the structure as drawn. A value given as a limit tells only on which side of the number the result lay.

The IC50 is the midpoint of a concentration-inhibition curve. By MIC is commonly meant the lowest concentration found to suppress growth. A high value points to weaker potency.

On to `O=C(O)CC[N+](=O)[O-]`, for which, in [1], the IC50 was determined as 19 µM.
With `C1=C\CC[C@]23O[C@H]2[C@@H](c2nccc4c2[nH]c2ccccc24)[C@@H]2CCN(CCCC/1)C[C@@]21CCCCCCCCN[C@H]13`, the minimal inhibitory concentration (MIC) in the test on Staphylococcus aureus is > 100 µg/mL; against Proteus hauseri it was > 100 µg/mL; in the test on Kocuria rhizophila, 100 µg/mL (≈ 181 µM); in the test on Escherichia coli it was > 100 µg/mL; against Bacillus spizizenii it was 100 µg/mL (≈ 181 µM); in the test on Salmonella typhimurium, 50 µg/mL (≈ 90.4 µM). Further, the IC50 (against Sortase A; in test [2]; in [1]) was > 150 µM each time. The results for the CC50 with A549 and in the test with K562 were 6.5 µM and 9.6 µM, respectively.
`Cn1cncc1C(=O)c1nccc2c1[nH]c1ccccc12`: the MIC against Staphylococcus aureus was > 100 µg/mL; against Proteus hauseri, > 100 µg/mL; with Kocuria rhizophila, 25 µg/mL (≈ 90.5 µM); with Escherichia coli, > 100 µg/mL; with Bacillus spizizenii, 50 µg/mL (≈ 181 µM); in the test on Salmonella typhimurium it was 25 µg/mL (≈ 90.5 µM). Further, the IC50 (at Sortase A; in test [2]; in [1]) was > 150 µM throughout. The CC50 in the test on A549 was found to be 12 µM; in the test with K562, 13 µM.
As for `Cl.[O-][N+]1=C(C2=C[C@@]3(O)CC/C=C\CCCCN4CC[C@@H]2[C@]2(CC/C=C\CCCCN[C@H]23)C4)c2[nH]c3ccccc3c2CC1`, the MIC against Staphylococcus aureus is 32 µg/mL; with Proteus hauseri it was 32 µg/mL; in the test with Kocuria rhizophila it was 64 µg/mL; in the test with Escherichia coli it was > 100 µg/mL; in the test with Bacillus spizizenii it was 64 µg/mL; against Salmonella typhimurium it was > 100 µg/mL. Moreover, the IC50 is > 150 µM on Sortase A, 110 µM in test [2] and > 150 µM in test [1]. The CC50 stood at 5.7 µM with A549 and 9.5 µM in the test on K562.
In the case of `CC1(C)S[C@@H]2[C@H](NC(=O)[C@H](N)c3ccccc3)C(=O)N2[C@H]1C(=O)O` [AMPICILLIN], the minimal inhibitory concentration (MIC) in the test with Staphylococcus aureus is 0.39 µg/mL (≈ 1.12 µM); against Proteus hauseri it was 1.6 µg/mL (≈ 4.58 µM); in the test with Kocuria rhizophila, 0.39 µg/mL (≈ 1.12 µM); against Escherichia coli it was 6.3 µg/mL (≈ 18 µM); with Bacillus spizizenii, 0.78 µg/mL (≈ 2.23 µM); against Salmonella typhimurium, 0.39 µg/mL (≈ 1.12 µM).
For `O[C@@H]1CC[C@@]23C[C@]45CN6CCCC/C=C\CC[C@](O)(C=C(c7nccc8c7[nH]c7ccccc78)[C@@H]4CC6)[C@@H]5N2CC[C@@H]1O[C@@]12CC[C@@H](O3)[C@@H](O)CCN1[C@@H]1[C@]3(CN4CCCC/C=C\CC[C@]1(O)C=C(c1nccc5c1[nH]c1ccccc15)[C@@H]3CC4)C2`, the MIC in the test on Staphylococcus aureus was > 100 µg/mL; with Proteus hauseri it was > 100 µg/mL; in the test on Kocuria rhizophila it was 1.6 µg/mL (≈ 1.38 µM); in the test on Escherichia coli, > 100 µg/mL; in the test with Bacillus spizizenii, 1.6 µg/mL (≈ 1.38 µM); in the test on Salmonella typhimurium, 0.78 µg/mL (≈ 0.672 µM). Also, the IC50 is > 150 µM against Sortase A, > 150 µM in test [2] and 27 µM in [1]. In addition, the CC50 in the test on A549 turned out to be 13 µM; in the test on K562, 12 µM.
As to `O[C@]12C=C(c3nccc4c3[nH]c3ccccc34)[C@@H]3CCN(CCCC/C=C\CC1)C[C@@]31C[C@@H]3C=C[C@H]4CCC[N@+]43[C@H]12.[Cl-]`, the MIC against Staphylococcus aureus stood at 8 µg/mL; against Proteus hauseri, 8 µg/mL; with Kocuria rhizophila, 16 µg/mL; against Escherichia coli, 64 µg/mL; against Bacillus spizizenii, 32 µg/mL; in the test with Salmonella typhimurium, 16 µg/mL. Besides, the IC50 in test [2] and in [1] was > 150 µM in each case. The results for the CC50 with A549 and in the test with K562 were 4.6 µM and 7.2 µM, respectively.
As for `O[C@H]1/C=C\[C@H]2C[C@]34CN5CCCC/C=C\CC[C@](O)(C=C(c6nccc7c6[nH]c6ccccc67)[C@@H]3CC5)[C@@H]4N2CCC1`, the minimum inhibitory concentration (MIC) with Staphylococcus aureus was 25 µg/mL (≈ 44.3 µM); against Proteus hauseri, 13 µg/mL (≈ 23 µM); in the test on Kocuria rhizophila it was 6.3 µg/mL (≈ 11.2 µM); in the test with Escherichia coli, > 100 µg/mL; in the test with Bacillus spizizenii, 6.3 µg/mL (≈ 11.2 µM); against Salmonella typhimurium it was 1.6 µg/mL (≈ 2.83 µM). Besides, the results for the IC50 (on Sortase A; in [2]; in [1]) were > 150 µM, > 150 µM and 140 µM, respectively. In addition, the CC50 in the test with A549 is 5.8 µM; with K562, 7.2 µM.
As to `Cn1cncc1C(=O)C1=NCCc2c1[nH]c1ccccc21`, the MIC against Staphylococcus aureus was 50 µg/mL (≈ 180 µM); in the test with Proteus hauseri, 50 µg/mL (≈ 180 µM); against Kocuria rhizophila, 25 µg/mL (≈ 89.8 µM); against Escherichia coli, > 100 µg/mL; against Bacillus spizizenii, 25 µg/mL (≈ 89.8 µM); with Salmonella typhimurium it was 6.3 µg/mL (≈ 22.6 µM). Moreover, the IC50 against Sortase A was > 150 µM; in [2] it was > 150 µM; in test [1] it was 75 µM. Moreover, the CC50 with A549 was 9.9 µM; in the test on K562 it was 9.2 µM.
`COc1cccc2c1C(=O)c1c(O)c3c(c(O)c1C2=O)C[C@@](O)(C(=O)CO)C[C@@H]3O[C@H]1C[C@H](N)[C@H](O)[C@H](C)O1` [DOXORUBICIN]: the CC50 in the test on A549 was found to be 0.92 µM; with K562, 1.1 µM.
`O[C@@H]1CCCN2[C@@H](CC1)C[C@]13CN4CCCC/C=C\CC[C@](O)(C=C(c5nccc6c5[nH]c5ccccc56)[C@@H]1CC4)[C@H]23` [32,33-DIHYDRO-31-HYDROXYMANZAMINE A]: the MIC is 50 µg/mL (≈ 88.2 µM) with Staphylococcus aureus; 100 µg/mL (≈ 176 µM) against Proteus hauseri; 13 µg/mL (≈ 22.9 µM) with Kocuria rhizophila; > 100 µg/mL in the test with Escherichia coli; 25 µg/mL (≈ 44.1 µM) with Bacillus spizizenii; 1.6 µg/mL (≈ 2.82 µM) against Salmonella typhimurium. In addition, the IC50 was > 150 µM against Sortase A, > 150 µM in test [2] and 68 µM in [1]. For the same compound, the CC50 in the test on A549 is 8.2 µM; in the test on K562, 8.4 µM.
With `Cl.[O-][n+]1ccc2c([nH]c3ccccc32)c1C1=C[C@@]2(O)CC/C=C\CCCCN3CC[C@@H]1[C@]1(CC/C=C\CCCCN[C@H]12)C3`, the MIC against Staphylococcus aureus is 32 µg/mL; in the test with Proteus hauseri it was > 100 µg/mL; against Kocuria rhizophila it was > 100 µg/mL; in the test on Escherichia coli, > 100 µg/mL; against Bacillus spizizenii, > 100 µg/mL; with Salmonella typhimurium it was 32 µg/mL. Further, the values for the IC50 (at Sortase A; in test [2]; in test [1]) were 81 µM, > 150 µM and 26 µM, respectively. Moreover, the CC50 with A549 worked out at 4.7 µM; with K562 it was 8.1 µM.
As for `O[C@]12C=C(c3nccc4c3[nH]c3ccccc34)[C@@H]3CCN(CCCC/C=C\CC1)C[C@@]31C[C@@H]3/C=C\CCCCN3[C@H]12` [MANZAMINE A], the minimum inhibitory concentration (MIC) in the test with Staphylococcus aureus was > 100 µg/mL; in the test on Proteus hauseri, > 100 µg/mL; with Kocuria rhizophila it was 50 µg/mL (≈ 91.1 µM); in the test on Escherichia coli it was > 100 µg/mL; against Bacillus spizizenii, 50 µg/mL (≈ 91.1 µM); in the test with Salmonella typhimurium, 3.1 µg/mL (≈ 5.65 µM). Besides, the IC50 is > 150 µM at Sortase A, > 150 µM in [2] and 140 µM in [1]. Moreover, the figures for the CC50 in the test on A549 and in the test with K562 were 8.3 µM and 11 µM, respectively.

Source of the values: ChEMBL document CHEMBL4118044, “Manzamine Alkaloids from an Acanthostrongylophora sp. Sponge” (J Nat Prod, 2017).
